The values below come from ChEMBL document CHEMBL5465560, “Selectivity Literature for EUbOPEN Chemogenomic Library” (2024).

For assay [1], the target named is Tyrosine-protein kinase Fes/Fps (Homo sapiens) (UniProt P07332). The experiment in a line: Selectivity interaction (Upstate Kinase Profiler service (Millipore)) EUB0000056c FES. Particulars: at 1 µM.
Assay [2] deals with Dual specificity mitogen-activated protein kinase kinase 1 (Homo sapiens, UniProt Q02750). The experiment in a line: Selectivity interaction (ProQinase) EUB0000171b MAP2K1.
Assay [3] deals with Epidermal growth factor receptor (Homo sapiens), P00533 [UNDEFINED MUTATION]. The experiment in a line: Selectivity interaction (ProQinase) EUB0000171b EGFR. The following applies: at 1 µM.
The target of assay [4] is Homeodomain-interacting protein kinase 2 (Homo sapiens, UniProt Q9H2X6). The following applies: at 10 µM.
Assay [5] concerns the target Tyrosine-protein kinase Fes/Fps (Homo sapiens) (UniProt P07332). The experiment in a line: Selectivity interaction (Kinase panel (DSF assay)) EUB0001558a FES.
Assay [6] relates to Mast/stem cell growth factor receptor Kit (Homo sapiens), P10721 [D816V]. The following applies: at 10 µM.
The target of assay [7] is RAF proto-oncogene serine/threonine-protein kinase (Homo sapiens) (UniProt P04049). Put plainly: Selectivity interaction (KinomeScan (DiscoverX)) EUB0001079a RAF1. Particulars: at 1 µM.
Assay [8] has as its target Serine/threonine-protein kinase SBK1 (Homo sapiens) (UniProt Q52WX2). Put plainly: Selectivity interaction (KinomeScan (DiscoverX)) EUB0001049a SBK1. Particulars: at 1 µM.
The target of assay [9] is Serine/threonine-protein kinase PAK 6 (Homo sapiens) (UniProt Q9NQU5). Put plainly: Selectivity interaction (KinomeScan (DiscoverX)) EUB0000655a PAK6. Particulars: at 10 µM.
Assay [10] concerns the target Serine/threonine-protein kinase SBK1 (Homo sapiens) (UniProt Q52WX2). Put plainly: Selectivity interaction (KinomeScan (DiscoverX)) EUB0000045b SBK1. Particulars: at 1 µM.
The target in assay [11] is Mitogen-activated protein kinase 14 (Homo sapiens, UniProt Q16539). Put plainly: Selectivity interaction (KinomeScan (DiscoverX)) EUB0000666a MAPK14. Particulars: at 10 µM.
Assay [12] addresses Vascular endothelial growth factor receptor 2 (Homo sapiens, UniProt P35968). The experiment in a line: Selectivity interaction (KinomeScan (DiscoverX)) EUB0000666a KDR. Particulars: at 10 µM.
The target in assay [13] is T1, Membrane-associated tyrosine- and threonine-specific cdc2-inhibitory kinase (Homo sapiens) (UniProt Q99640).
T1 sequence (whole entry): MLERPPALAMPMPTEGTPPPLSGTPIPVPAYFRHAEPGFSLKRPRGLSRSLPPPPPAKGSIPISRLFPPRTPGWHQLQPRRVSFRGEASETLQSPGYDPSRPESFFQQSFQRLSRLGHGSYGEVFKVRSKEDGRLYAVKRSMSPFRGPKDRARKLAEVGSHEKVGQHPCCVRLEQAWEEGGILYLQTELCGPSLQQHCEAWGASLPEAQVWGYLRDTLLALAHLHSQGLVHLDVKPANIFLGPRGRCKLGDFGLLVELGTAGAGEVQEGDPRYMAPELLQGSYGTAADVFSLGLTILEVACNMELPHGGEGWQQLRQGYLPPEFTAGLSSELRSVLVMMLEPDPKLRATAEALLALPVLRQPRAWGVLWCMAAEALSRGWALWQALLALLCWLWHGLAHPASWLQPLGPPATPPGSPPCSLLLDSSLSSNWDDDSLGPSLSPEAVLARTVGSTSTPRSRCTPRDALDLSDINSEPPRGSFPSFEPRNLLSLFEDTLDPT
The experiment in a line: Selectivity interaction (KinomeScan (DiscoverX)) EUB0000666a PKMYT1. Particulars: at 10 µM.

The target of assay [14] is Insulin receptor-related protein (Homo sapiens) (UniProt P14616). The experiment in a line: Selectivity interaction (Kinase panel (Z-LYTE Assay)) EUB0001632a INSRR. The following applies: at 10 µM.
In assay [15] the target is Serine/threonine-protein kinase Chk2 (Homo sapiens) (UniProt O96017). The experiment in a line: Selectivity interaction (ActivX KiNativ screen (kinase selectivity in THP-1 cell lysates)) EUB0000639a CHEK2. Type of assay: subcellular. Particulars: lysate, at 0.01 µM.
The target in assay [16] is Mitogen-activated protein kinase kinase kinase 20 (Homo sapiens) (UniProt Q9NYL2). Put plainly: Selectivity interaction (Kinase panel (Invitrogen)) EUB0000639a MAP3K20. Particulars: at 200 nM.
Assay [17] addresses Serine/threonine-protein kinase 26 (Homo sapiens, UniProt Q9P289).
For assay [18], the target named is Serine/threonine-protein kinase PAK 3 (Homo sapiens) (UniProt O75914). Put plainly: Selectivity interaction (KinomeScan (DiscoverX)) EUB0000229b PAK3. The following applies: at 10 µM.
The target in assay [19] is ATPase family AAA domain-containing protein 2B (Homo sapiens) (UniProt Q9ULI0). The experiment in a line: Selectivity interaction (Human bromodomain panel (DSF assay)) EUB0000233b ATAD2B.
The target in assay [20] is Insulin receptor-related protein (Homo sapiens) (UniProt P14616). Put plainly: Selectivity interaction (KinomeScan (DiscoverX)) EUB0000595a INSRR. Particulars: at 10 µM.
Assay [21] has as its target Non-receptor tyrosine-protein kinase TYK2 (Homo sapiens, UniProt P29597). The experiment in a line: Selectivity interaction (KinomeScan (DiscoverX)) EUB0000595a TYK2. Particulars: at 10 µM.
Assay [22] has as its target MAP kinase-interacting serine/threonine-protein kinase 1 (Homo sapiens) (UniProt Q9BUB5). The experiment in a line: Selectivity interaction (Kinase panel (literature)) EUB0001199aCl MKNK1. Particulars: at 1 µM.

Sequence of Serine/threonine-protein kinase SBK1 (Homo sapiens) (Q52WX2 whole entry): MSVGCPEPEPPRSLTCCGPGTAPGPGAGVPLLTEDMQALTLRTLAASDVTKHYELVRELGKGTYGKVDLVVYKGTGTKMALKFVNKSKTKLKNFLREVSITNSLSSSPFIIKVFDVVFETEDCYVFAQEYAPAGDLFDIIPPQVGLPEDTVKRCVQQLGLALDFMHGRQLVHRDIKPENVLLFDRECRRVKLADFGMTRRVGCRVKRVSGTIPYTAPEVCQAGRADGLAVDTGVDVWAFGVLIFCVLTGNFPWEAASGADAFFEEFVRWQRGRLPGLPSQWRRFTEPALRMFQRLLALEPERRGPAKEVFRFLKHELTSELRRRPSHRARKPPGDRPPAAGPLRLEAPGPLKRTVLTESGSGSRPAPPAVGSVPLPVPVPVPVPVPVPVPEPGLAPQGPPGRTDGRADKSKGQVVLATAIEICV
Sequence of Tyrosine-protein kinase Fes/Fps (Homo sapiens) (P07332 whole entry): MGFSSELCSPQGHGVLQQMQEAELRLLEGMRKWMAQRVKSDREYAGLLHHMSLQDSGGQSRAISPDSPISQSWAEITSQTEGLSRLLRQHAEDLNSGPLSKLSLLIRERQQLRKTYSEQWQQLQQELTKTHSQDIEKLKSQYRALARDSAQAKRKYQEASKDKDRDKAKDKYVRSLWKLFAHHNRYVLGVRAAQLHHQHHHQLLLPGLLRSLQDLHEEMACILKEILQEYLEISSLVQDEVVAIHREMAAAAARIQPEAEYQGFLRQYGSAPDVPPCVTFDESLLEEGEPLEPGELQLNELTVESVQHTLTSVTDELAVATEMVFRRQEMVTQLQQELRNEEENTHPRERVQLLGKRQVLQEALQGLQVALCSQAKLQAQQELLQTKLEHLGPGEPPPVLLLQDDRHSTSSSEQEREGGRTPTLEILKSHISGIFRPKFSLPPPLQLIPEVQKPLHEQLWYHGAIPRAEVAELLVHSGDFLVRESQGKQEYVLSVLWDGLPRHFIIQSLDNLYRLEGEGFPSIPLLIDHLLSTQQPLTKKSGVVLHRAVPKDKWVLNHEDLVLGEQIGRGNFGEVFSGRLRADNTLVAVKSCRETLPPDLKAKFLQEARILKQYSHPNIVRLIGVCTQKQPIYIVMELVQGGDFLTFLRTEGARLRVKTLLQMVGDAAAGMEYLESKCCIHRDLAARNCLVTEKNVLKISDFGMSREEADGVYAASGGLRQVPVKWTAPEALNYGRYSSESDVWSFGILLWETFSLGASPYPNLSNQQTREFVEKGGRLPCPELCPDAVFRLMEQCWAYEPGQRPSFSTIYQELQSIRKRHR
Sequence of Dual specificity mitogen-activated protein kinase kinase 1 (Q02750 whole entry): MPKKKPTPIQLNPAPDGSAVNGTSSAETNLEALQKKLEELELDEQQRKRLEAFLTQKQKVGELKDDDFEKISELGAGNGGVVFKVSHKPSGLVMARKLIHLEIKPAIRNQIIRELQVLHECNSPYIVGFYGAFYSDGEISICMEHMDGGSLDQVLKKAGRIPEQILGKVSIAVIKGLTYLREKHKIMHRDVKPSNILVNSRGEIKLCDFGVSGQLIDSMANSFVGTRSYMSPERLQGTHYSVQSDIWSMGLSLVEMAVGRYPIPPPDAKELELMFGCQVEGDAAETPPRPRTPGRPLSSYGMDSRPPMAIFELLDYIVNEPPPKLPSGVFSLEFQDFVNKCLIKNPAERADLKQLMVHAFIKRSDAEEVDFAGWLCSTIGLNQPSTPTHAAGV
Sequence of Insulin receptor-related protein (Homo sapiens) (P14616 27-742 limits assumed): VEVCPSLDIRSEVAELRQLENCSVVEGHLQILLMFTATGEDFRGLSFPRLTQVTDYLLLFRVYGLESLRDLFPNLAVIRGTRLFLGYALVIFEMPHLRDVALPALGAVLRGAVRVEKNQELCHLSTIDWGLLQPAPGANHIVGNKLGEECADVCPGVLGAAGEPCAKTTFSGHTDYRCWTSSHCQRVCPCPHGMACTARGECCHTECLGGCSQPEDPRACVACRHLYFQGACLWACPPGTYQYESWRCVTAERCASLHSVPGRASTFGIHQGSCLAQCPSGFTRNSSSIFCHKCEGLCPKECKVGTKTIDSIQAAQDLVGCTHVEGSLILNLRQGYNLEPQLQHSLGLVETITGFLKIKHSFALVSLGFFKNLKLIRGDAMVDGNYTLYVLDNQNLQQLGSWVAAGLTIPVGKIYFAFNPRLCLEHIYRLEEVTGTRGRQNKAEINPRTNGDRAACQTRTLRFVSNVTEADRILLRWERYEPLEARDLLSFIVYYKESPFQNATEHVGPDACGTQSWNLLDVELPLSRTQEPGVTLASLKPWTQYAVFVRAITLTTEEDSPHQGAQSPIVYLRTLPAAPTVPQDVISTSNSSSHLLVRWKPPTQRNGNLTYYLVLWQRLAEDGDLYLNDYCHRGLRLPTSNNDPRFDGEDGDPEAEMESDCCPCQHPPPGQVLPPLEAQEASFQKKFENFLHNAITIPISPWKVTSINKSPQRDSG
Sequence of Insulin receptor-related protein (Homo sapiens) (P14616 747-1297 limits assumed): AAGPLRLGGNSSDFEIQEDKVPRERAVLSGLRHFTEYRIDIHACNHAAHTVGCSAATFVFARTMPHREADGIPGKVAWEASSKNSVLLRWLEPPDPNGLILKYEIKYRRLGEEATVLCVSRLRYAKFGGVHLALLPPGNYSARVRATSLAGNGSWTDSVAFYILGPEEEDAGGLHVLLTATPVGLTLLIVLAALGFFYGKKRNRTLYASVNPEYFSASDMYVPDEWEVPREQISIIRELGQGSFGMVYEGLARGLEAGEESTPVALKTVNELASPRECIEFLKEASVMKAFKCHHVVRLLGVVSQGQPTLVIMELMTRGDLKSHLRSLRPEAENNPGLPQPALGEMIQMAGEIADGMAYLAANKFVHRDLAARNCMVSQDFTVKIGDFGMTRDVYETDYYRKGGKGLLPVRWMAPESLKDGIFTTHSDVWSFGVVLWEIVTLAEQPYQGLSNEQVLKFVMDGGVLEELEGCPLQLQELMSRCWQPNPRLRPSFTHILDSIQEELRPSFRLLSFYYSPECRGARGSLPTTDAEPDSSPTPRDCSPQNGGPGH
Sequence of Serine/threonine-protein kinase PAK 6 (Homo sapiens) (Q9NQU5 whole entry, looked up): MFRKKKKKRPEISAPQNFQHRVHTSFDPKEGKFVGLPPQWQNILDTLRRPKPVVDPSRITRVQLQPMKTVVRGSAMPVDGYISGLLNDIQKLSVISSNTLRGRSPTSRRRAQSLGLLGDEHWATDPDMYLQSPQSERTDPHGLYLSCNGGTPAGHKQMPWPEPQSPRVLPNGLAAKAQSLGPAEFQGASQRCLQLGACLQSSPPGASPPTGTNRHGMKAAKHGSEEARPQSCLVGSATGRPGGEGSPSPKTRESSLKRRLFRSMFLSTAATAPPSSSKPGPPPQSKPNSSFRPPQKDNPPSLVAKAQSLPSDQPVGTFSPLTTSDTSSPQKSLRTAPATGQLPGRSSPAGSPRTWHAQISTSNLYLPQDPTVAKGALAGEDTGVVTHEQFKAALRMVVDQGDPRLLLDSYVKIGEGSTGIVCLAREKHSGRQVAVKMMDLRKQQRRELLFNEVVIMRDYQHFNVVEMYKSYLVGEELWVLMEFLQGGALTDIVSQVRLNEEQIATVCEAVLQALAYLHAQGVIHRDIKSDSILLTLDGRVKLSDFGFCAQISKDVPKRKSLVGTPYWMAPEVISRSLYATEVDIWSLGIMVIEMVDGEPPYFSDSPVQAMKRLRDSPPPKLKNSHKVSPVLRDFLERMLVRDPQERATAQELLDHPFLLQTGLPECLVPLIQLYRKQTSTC
Sequence of Mitogen-activated protein kinase 14 (Q16539 whole entry): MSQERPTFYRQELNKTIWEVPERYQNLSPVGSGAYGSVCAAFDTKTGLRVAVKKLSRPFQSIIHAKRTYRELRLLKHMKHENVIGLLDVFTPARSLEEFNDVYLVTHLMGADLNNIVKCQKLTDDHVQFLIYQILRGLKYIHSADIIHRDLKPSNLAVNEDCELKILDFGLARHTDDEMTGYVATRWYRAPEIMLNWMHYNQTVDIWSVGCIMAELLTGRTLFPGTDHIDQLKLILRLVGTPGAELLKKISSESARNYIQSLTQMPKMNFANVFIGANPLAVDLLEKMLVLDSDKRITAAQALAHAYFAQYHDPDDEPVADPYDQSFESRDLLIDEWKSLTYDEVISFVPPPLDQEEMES
Sequence of Serine/threonine-protein kinase PAK 3 (Homo sapiens) (O75914 whole entry, looked up, the tested form may be a part): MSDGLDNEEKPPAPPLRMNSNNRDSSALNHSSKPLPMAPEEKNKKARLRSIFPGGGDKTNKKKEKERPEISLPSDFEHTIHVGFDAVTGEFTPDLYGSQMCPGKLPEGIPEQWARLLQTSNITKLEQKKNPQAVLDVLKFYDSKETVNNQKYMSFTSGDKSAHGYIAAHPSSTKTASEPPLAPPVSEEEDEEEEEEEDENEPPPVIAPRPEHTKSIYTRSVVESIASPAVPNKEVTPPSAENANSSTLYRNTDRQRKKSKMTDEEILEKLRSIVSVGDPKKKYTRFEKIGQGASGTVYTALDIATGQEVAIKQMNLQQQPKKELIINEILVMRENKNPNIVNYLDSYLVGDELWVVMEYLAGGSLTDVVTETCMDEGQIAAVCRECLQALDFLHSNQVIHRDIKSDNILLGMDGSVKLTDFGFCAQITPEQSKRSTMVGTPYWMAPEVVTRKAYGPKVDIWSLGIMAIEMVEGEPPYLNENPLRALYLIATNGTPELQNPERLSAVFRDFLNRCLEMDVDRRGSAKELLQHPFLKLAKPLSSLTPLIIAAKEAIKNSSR
Sequence of MAP kinase-interacting serine/threonine-protein kinase 1 (Homo sapiens) (Q9BUB5 whole entry, looked up): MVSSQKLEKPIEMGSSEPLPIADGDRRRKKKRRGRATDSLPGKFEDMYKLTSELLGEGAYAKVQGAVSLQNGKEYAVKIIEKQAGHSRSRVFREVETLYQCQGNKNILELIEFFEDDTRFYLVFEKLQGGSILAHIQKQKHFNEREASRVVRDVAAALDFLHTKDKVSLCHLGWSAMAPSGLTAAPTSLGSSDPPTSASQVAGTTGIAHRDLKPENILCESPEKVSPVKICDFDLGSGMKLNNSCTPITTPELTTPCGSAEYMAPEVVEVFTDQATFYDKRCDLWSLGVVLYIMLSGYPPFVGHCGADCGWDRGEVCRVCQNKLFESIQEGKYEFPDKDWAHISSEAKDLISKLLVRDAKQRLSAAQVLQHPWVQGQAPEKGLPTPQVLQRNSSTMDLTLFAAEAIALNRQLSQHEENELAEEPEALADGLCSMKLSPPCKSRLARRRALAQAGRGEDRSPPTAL

On to `Cc1ccc(-c2ccc3c(ccc4sc5c(c43)NC[C@@H](C)NC5=O)n2)cn1`, for which the % of inhibition in assay [1] is -3%.
Turning to `C=CC(=O)Nc1cccc(C(=O)Nc2ccc(Nc3cc(-c4[nH]c(SC)nc4C)ccn3)cc2)c1`, the % of control in assay [2] (at 1 µM) stood at 96%; in assay [2] (at 5 µM), 113%; in assay [3], 85%.
`Cc1cc([C@@H](C)Nc2ccccc2C(=O)O)c2nc(N3CCOCC3)cc(=O)n2c1` [AZD-6482] had a % of control in assay [4] of 79%.
`CC(C)(O)[C@H](F)CN1Cc2cc(NC(=O)c3cnn4cccnc34)c(N3CCOCC3)cc2C1=O` displayed a dTM in assay [5] of 0.3 K.
In turn, `CCN(CC)CCCCNc1ncc2cc(-c3cc(OC)cc(OC)c3)c(NC(=O)NC(C)(C)C)nc2n1` came in with a % of control in assay [6] of 100%.
With `Nc1cnc(N2CCc3cc(S(=O)(=O)Nc4c(F)cc(Cl)cc4F)cc(N4CCCC4=O)c32)nc1` [TP-020n], the % of control in assay [7] was found to be 79%.
With `COc1cc(Nc2nc(C)cc(-c3cnn4nc(OC)ccc34)n2)cc(C(F)(F)F)c1`, in assay [8], the % of control turned out to be 87%.
In turn, `CN(C)CCOc1ccc(-c2nc(-c3ccncc3)c(-c3ccc4c(c3)CC/C4=N\O)[nH]2)cc1` returned a % of control in assay [9] of 100%.
In the case of `C=CC(=O)Nc1cc(-n2c(=O)ccc3cnc4ccc(-c5ccc(NS(C)(=O)=O)cc5)cc4c32)ccc1C`, the % of control in [10] was found to be 4.6%.
For `O=C(NOC[C@H](O)CO)c1ccc(F)c(F)c1Nc1ccc(I)cc1F`, the % of control in assay [11] amounted to 100%; in assay [12], 84%; in assay [13] it was 80%.
Take `Cn1cc(-n2cnc3c(NCc4nc5cc(Cl)c(Cl)cc5[nH]4)nc(N4CCOCC4)nc32)cn1`: the % of control in assay [14] stood at 0.348%.
In the case of `CC[C@@H]1[C@H](F)C(=O)N[C@@H]1COc1nccc2cc(C(N)=O)c(OC)cc12` [ZIMLOVISERTIB], the % of inhibition in [15] was -4.8%; in assay [16] it was 1.12%.
On to `CCc1cccc(CC)c1NC(=O)c1nn(C)c2c1CCc1cnc(Nc3ccc(C(=O)NC4CCN(C)CC4)cc3OC(F)(F)F)nc1-2`, for which the IC50 (as a rule, the point on the concentration scale where inhibition reaches its midpoint) in assay [17] is above 10 µM.
For the compound `COc1cc(N(C)c2ccnc3ccc(C(F)(F)F)cc23)cc(OC)c1OC`, in assay [18], the % binding was determined as 96%.
Take `CN(C)CCCOc1ccc(-c2cc(NCCCn3cccn3)nc(S(C)(=O)=O)n2)cc1`: the dTM in assay [19] was below 2 K.
For `COCC(=O)NC/C=C/c1ccc2ncnc(Nc3ccc(Oc4ccc(C)nc4)c(C)c3)c2c1` [CP-724714], the results for the % of control in [20] and in [21] were 100% and 24%, respectively.
Regarding `CN1Cc2nccc(-c3cn(C)nc3-c3ccc(F)cc3)c2C1=O`, the % of inhibition in [22] is -1%.
